These results are taken from patent US12083101B2, “Biaryl derivatives as YAP/TAZ-TEAD protein-protein interaction inhibitors” (Novartis AG, priority 2020, dated 2024).

pIC50: −log10 of the molar value. Read-outs that look alike come from different tables or passages of the source.

The target in test [1] is Avi-humanTEAD4 217-434 / Cy5 labeled humanYAP 60-100 (Homo sapiens (Human), UniProt Q15561). The experiment in a line: TR-FRET YAP-TEAD4 in-vitro biochemical assay. In kind it is binding. The settings on record: 1 nM Avi-humanTEAD4 217-434, 20 nM Cy5-humanYAP 60-100, 1 h room temperature.
Chain of Avi-humanTEAD4 217-434 / Cy5 labeled humanYAP 60-100 (Q15561 217-434): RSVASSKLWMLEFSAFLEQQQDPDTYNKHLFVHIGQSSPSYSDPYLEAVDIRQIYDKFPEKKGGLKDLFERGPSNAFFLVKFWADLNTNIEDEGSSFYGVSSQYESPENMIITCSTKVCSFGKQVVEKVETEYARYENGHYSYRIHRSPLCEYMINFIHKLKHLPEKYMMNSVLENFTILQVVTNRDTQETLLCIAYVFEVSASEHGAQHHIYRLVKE
In test [2] the test system is NCI-H2052 Tet-On shYAP_2371 pLenti6 MCAT_Luc cells. Description: Proliferation assay (resazurin), NCI-H2052. In kind it is cell-based. To be noted: 72 hours incubation. Put shortly: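 The NCI-H2052 line carries a Tet-inducible shRNA against the YAP1 3′UTR and an MCAT luciferase reporter. The day after seeding, it received eleven 2-fold compound dilutions at 0.1% DMSO, and viability was read by resazurin fluorescence.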
Background: Resazurin is reduced to fluorescent resorufin, in cell work by metabolically active cells.

Test [3] relates to MKN-45/Ubc-luc cells. The experiment in a line: Reporter gene specificity control (Ubc-luciferase), MKN-45. The settings on record: for IC50: Homo sapiens, MKN-45, 24 h, read-out: Reporter gene assay MKN-45 IC50 [μM], MKN-45/Ubc-luc cells (YAP deleted, specificity control), 24 hours incubation; for pIC50: read-out: Reporter gene assay MKN-45 IC50, MKN-45/Ubc-luc cells (YAP deleted, specificity control), 24 hours incubation. In general terms: A reporter such as luciferase makes a cellular process visible.

Test [4] has as its system MKN-45/Ubc-luc cells. The experiment in a line: Proliferation assay (resazurin), MKN-45. It is filed as cell-based. To be noted: 72 hours incubation.
Test [5] concerns NCI-H2052 Tet-On shYAP_2371 pLenti6 MCAT_Luc cells (YAP-dependent transcription). The experiment in a line: YAP reporter gene activity assay (MCAT-luciferase), NCI-H2052. It is filed as cell-based. The settings on record: 24 hours incubation, BrightGlo luminescence. In a few lines:
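NCI-H2052 cells carrying an MCAT-luciferase reporter and a tetracycline-inducible YAP 3′UTR shRNA were treated with eleven 2-fold compound dilutions (0.1% DMSO) for 24 h at 37 °C. BrightGlo luminescence was background-subtracted and expressed as % of DMSO control. IC50 came from a four-parameter fit; MKN-45/Ubc-luc cells served as the specificity counterscreen.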

Regarding `CNC(=O)c1ccc(OC[C@H](C)O)c(F)c1-c1c(Cl)c(F)cc2c1C[C@](c1ccccc1)([C@@H]1CCCN1)O2` (atropisomer, axis not shown) [Example 154, 2-((2S,4S)-5-Chloro-6-fluoro-2-phenyl-2-((S)-pyrrolidin-2-yl)-2,3-dihydrobenzofuran-4-yl)-3-fluoro-4-((S)-2-hydroxypropoxy)-N-methylbenzamide], the pIC50 – broadly, the IC50 on a negative log10 scale, so that one unit is a factor of ten – was 8.10 in test [1] and 7.11 in test [5] (Homo sapiens, NCI-H2052, 24 h). For the same compound, the GI50 – broadly, the concentration at which growth is held to half of that of the control – was 59 nM in test [2] (Homo sapiens, NCI-H2052, 72 h) and greater than 10 µM in the test on MKN-45/Ubc-luc cells [4] (Homo sapiens). The IC50 in the test on MKN-45/Ubc-luc cells [3] was greater than 10 µM.

In the case of `C[C@H]1c2c(ccc(Cl)c2-c2c(C(N)=O)ccc(OC(F)F)c2F)O[C@]1(CN)c1ccccc1` (atropisomer, axis not shown) [Example 103, 2-((2S,3S,4S)-2-(aminomethyl)-5-chloro-3-methyl-2-phenyl-2,3-dihydrobenzofuran-4-yl)-4-(difluoromethoxy)-3-fluorobenzamide], the pIC50 is 8.30 in test [1] and 6.97 in test [5] (Homo sapiens, NCI-H2052, 24 h). In addition, the GI50 in test [2] (Homo sapiens, NCI-H2052, 72 h) was 172 nM; in the test with MKN-45/Ubc-luc cells [4] (Homo sapiens) it was greater than 10 µM. Moreover, the IC50 in the test on MKN-45/Ubc-luc cells [3] was greater than 10 µM.

For `NC(=O)c1ccc(OC(F)F)c(F)c1-c1c(Cl)ccc2c1[C@H](O)[C@@](CN[C@H]1CC[C@H](O)CC1)(c1ccccc1)O2` (relative stereo) [Example 94a, 2-((2S,3S,4S)-5-chloro-3-hydroxy-2-((((trans)-4-hydroxycyclohexyl)amino)methyl)-2-phenyl-2,3-dihydrobenzofuran-4-yl)-4-(difluoromethoxy)-3-fluorobenzamide], the pIC50 was 8.70 in test [1], less than 5.00 with MKN-45/Ubc-luc cells [3] and 7.35 in test [5]. For the same compound, the GI50 in test [2] was 68 nM; with MKN-45/Ubc-luc cells [4] it was greater than 10 µM.

As for `CNC[C@]1(c2ccccc2)Oc2cc(F)c(Cl)c(-c3c(C(N)=O)ccc(OC)c3F)c2[C@@H]1C` (atropisomer, axis not shown) [Example 144, 2-((2S,3S,4S)-5-Chloro-6-fluoro-3-methyl-2-((methylamino)methyl)-2-phenyl-2,3-dihydrobenzofuran-4-yl)-3-fluoro-4-methoxybenzamide], the pIC50 in test [1] was 8.70; in test [5] (Homo sapiens, NCI-H2052, 24 h), 8.00. Further, the GI50 in test [2] (Homo sapiens, NCI-H2052, 72 h) is 10 nM; in the test with MKN-45/Ubc-luc cells [4] (Homo sapiens), greater than 8 µM. The IC50 with MKN-45/Ubc-luc cells [3] is greater than 8 µM.

Consider `NC(=O)c1ccc(OCCO)c(F)c1-c1c(Cl)c(F)cc2c1[C@H](O)[C@@](CNC1CCC1)(c1ccccc1)O2` (atropisomer, axis not shown) [Example 99, 2-((2S,3S,4S)-5-Chloro-2-((cyclobutylamino)methyl)-6-fluoro-3-hydroxy-2-phenyl-2,3-dihydrobenzofuran-4-yl)-3-fluoro-4-(2-hydroxyethoxy)benzamide], for which the pIC50 was 8.70 in test [1] and 7.64 in test [5] (Homo sapiens, NCI-H2052, 24 h). Further, the GI50 was 26 nM in test [2] (Homo sapiens, NCI-H2052, 72 h) and greater than 10 µM in the test with MKN-45/Ubc-luc cells [4] (Homo sapiens). In addition, the IC50 in the test with MKN-45/Ubc-luc cells [3] was greater than 10 µM.

`CNC[C@@]1(c2ccccc2)Cc2c(cc(F)c(Cl)c2-c2c(C(=O)NC)ccc(OCCO)c2F)O1` (atropisomer, axis not shown) [Example 51, 2-((2S,4S)-5-Chloro-6-fluoro-2-((methylamino)methyl)-2-phenyl-2,3-dihydrobenzofuran-4-yl)-3-fluoro-4-(2-hydroxyethoxy)-N-methylbenzamide]: the negative-log IC50 (pIC50) in test [1] was 8.52; in test [5] (Homo sapiens, NCI-H2052, 24 h), 7.21. Also, the GI50 in test [2] (Homo sapiens, NCI-H2052, 72 h) is 71 nM; with MKN-45/Ubc-luc cells [4] (Homo sapiens), greater than 10 µM. The IC50 with MKN-45/Ubc-luc cells [3] was greater than 10 µM.

In the case of `COc1ccc(C(N)=O)c(-c2c(Cl)ccc3c2C[C@](c2ccccc2)(C(C)N)O3)c1F` (stereo partly drawn) [Example 168, 2-((2S,4S)-2-(1-Aminoethyl)-5-chloro-2-phenyl-2,3-dihydrobenzofuran-4-yl)-3-fluoro-4-methoxybenzamide], the pIC50 in test [1] is 7.92; in test [5] (Homo sapiens, NCI-H2052, 24 h), 6.60. In addition, the 50% growth inhibitory concentration (GI50) in test [2] (Homo sapiens, NCI-H2052, 72 h) is 267 nM; in the test on MKN-45/Ubc-luc cells [4] (Homo sapiens), greater than 10 µM. The IC50 in the test on MKN-45/Ubc-luc cells [3] is greater than 10 µM.

For `COc1ccc(C(N)=O)c(-c2c(Cl)c(F)cc3c2[C@H](C)[C@@](CN)(c2ccccc2)O3)c1F` [Example 176, 2-((2S,3S,4S)-2-(Aminomethyl)-5-chloro-6-fluoro-3-methyl-2-phenyl-2,3-dihydrobenzofuran-4-yl)-3-fluoro-4-methoxybenzamide], the pIC50 was 8.52 in test [1], 4.96 in the test with MKN-45/Ubc-luc cells [3] and 7.74 in test [5]. The figures for the concentration for 50% growth inhibition (GI50) (in test [2]; in the test on MKN-45/Ubc-luc cells [4]) were 21 nM and 16 µM, respectively.

On to `COc1ccc(C(N)=O)c(-c2c(Cl)c(F)cc3c2[C@H](C)[C@@](CN)(c2ccccn2)O3)c1F` (atropisomer, axis not shown) [Example 109, 2-((2R,3S,4S)-2-(aminomethyl)-5-chloro-6-fluoro-3-methyl-2-(pyridin-2-yl)-2,3-dihydrobenzofuran-4-yl)-3-fluoro-4-methoxybenzamide], for which the pIC50 in test [1] was 8.52; in test [5] (Homo sapiens, NCI-H2052, 24 h) it was 7.12. The GI50 is 86 nM in test [2] (Homo sapiens, NCI-H2052, 72 h) and greater than 10 µM with MKN-45/Ubc-luc cells [4] (Homo sapiens). In the test on MKN-45/Ubc-luc cells [3], the IC50 was greater than 10 µM.

In the case of `NC[C@@]1(c2ccccc2)Cc2c(cc(F)c(Cl)c2-c2c(C(N)=O)cnc(OCCO)c2F)O1` (atropisomer, axis not shown) [Example 43, 4-((2S,4S)-2-(Aminomethyl)-5-chloro-6-fluoro-2-phenyl-2,3-dihydrobenzofuran-4-yl)-5-fluoro-6-(2-hydroxyethoxy)nicotinamide], the negative logarithm of the IC50 (pIC50) in test [1] is 8.30; in test [5] (Homo sapiens, NCI-H2052, 24 h) it was 7.33. Besides, the 50% growth inhibitory concentration (GI50) in test [2] (Homo sapiens, NCI-H2052, 72 h) is 94 nM; in the test on MKN-45/Ubc-luc cells [4] (Homo sapiens), greater than 10 µM. The IC50 with MKN-45/Ubc-luc cells [3] is greater than 10 µM.

On to `CNc1ccc(C(N)=O)c(-c2c(Cl)ccc3c2C[C@@](CN)(c2ccccc2)O3)c1F` (atropisomer, axis not shown) [Example 20, 2-((2S,4S)-2-(Aminomethyl)-5-chloro-2-phenyl-2,3-dihydrobenzofuran-4-yl)-3-fluoro-4-(methylamino)benzamide], for which the pIC50 in test [1] was 6.91; in test [5] (Homo sapiens, NCI-H2052, 24 h), 5.53. Further, the concentration for 50% growth inhibition (GI50) is 6880 nM in test [2] (Homo sapiens, NCI-H2052, 72 h) and greater than 10 µM with MKN-45/Ubc-luc cells [4] (Homo sapiens). The IC50 with MKN-45/Ubc-luc cells [3] is greater than 10 µM.

On to `CO[C@H]1c2c(cc(F)c(Cl)c2-c2c(C(N)=O)ccc(OCCO)c2F)O[C@@]1(c1ccccc1)C1CCCN1` (stereo partly drawn) [Example 166, 2-((2S,3S,4S)-5-chloro-6-fluoro-3-methoxy-2-phenyl-2-(pyrrolidin-2-yl)-2,3-dihydrobenzofuran-4-yl)-3-fluoro-4-(2-hydroxyethoxy)benzamide], for which the pIC50 was 8.10 in test [1] and 6.87 in test [5] (Homo sapiens, NCI-H2052, 24 h). In addition, the GI50 in test [2] (Homo sapiens, NCI-H2052, 72 h) was 256 nM; in the test with MKN-45/Ubc-luc cells [4] (Homo sapiens) it was greater than 10 µM. The IC50 in the test on MKN-45/Ubc-luc cells [3] is greater than 10 µM.

Regarding `CNC[C@@]1(c2ccccc2)Cc2c(ccc(Cl)c2-c2c(C(=O)NC)ccc(OC)c2F)O1` (atropisomer, axis not shown) [Example 26, 2-((2S,4S)-5-Chloro-2-((methylamino)methyl)-2-phenyl-2,3-dihydrobenzofuran-4-yl)-3-fluoro-4-methoxy-N-methylbenzamide], the pIC50 in test [1] is 7.68; in test [5] (Homo sapiens, NCI-H2052, 24 h), 6.84. Besides, the GI50 in test [2] (Homo sapiens, NCI-H2052, 72 h) is 310 nM; in the test with MKN-45/Ubc-luc cells [4] (Homo sapiens) it was greater than 10 µM. The IC50 in the test on MKN-45/Ubc-luc cells [3] is greater than 20 µM.

As to `NC[C@@]1(c2ccccc2)Cc2c(ccc(Cl)c2-c2c(C(N)=O)ccc(OC(F)F)c2F)O1` (atropisomer, axis not shown) [Example 11, 2-((2S,4S)-2-(aminomethyl)-5-chloro-2-phenyl-2,3-dihydrobenzofuran-4-yl)-4-(difluoromethoxy)-3-fluorobenzamide], the pIC50 in test [1] was 7.68; in test [5] (Homo sapiens, NCI-H2052, 24 h) it was 6.76. Further, the GI50 in test [2] (Homo sapiens, NCI-H2052, 72 h) was 284 nM; in the test with MKN-45/Ubc-luc cells [4] (Homo sapiens) it was greater than 10 µM. For the same compound, the IC50 in the test with MKN-45/Ubc-luc cells [3] is greater than 20 µM.

`NC(=O)c1ccc(OC(F)F)c(F)c1-c1c(Cl)c(F)cc2c1C[C@@](CN[C@@H]1CCC[C@H](O)C1)(c1ccccc1)O2` (atropisomer, axis not shown) [Example 83, 2-((2S,4S)-5-chloro-6-fluoro-2-((((1R,3S)-3-hydroxycyclohexyl)amino)methyl)-2-phenyl-2,3-dihydrobenzofuran-4-yl)-4-(difluoromethoxy)-3-fluorobenzamide]: the negative-log IC50 (pIC50) in test [1] was 7.62; in test [5] (Homo sapiens, NCI-H2052, 24 h), 6.40. Further, the GI50 in test [2] (Homo sapiens, NCI-H2052, 72 h) was 503 nM; in the test on MKN-45/Ubc-luc cells [4] (Homo sapiens), greater than 10 µM. Moreover, the IC50 with MKN-45/Ubc-luc cells [3] is greater than 10 µM.

As for `NC[C@@]1(c2cccc3c2OC(F)(F)O3)Cc2c(ccc(Cl)c2-c2c(F)cccc2C(N)=O)O1` (atropisomer, axis not shown) [Example 30, 2-((2S,4S)-2-(aminomethyl)-5-chloro-2-(2,2-difluorobenzo[d][1,3]dioxol-4-yl)-2,3-dihydrobenzofuran-4-yl)-3-fluorobenzamide], the negative-log IC50 (pIC50) in test [1] was 6.84; in test [5] (Homo sapiens, NCI-H2052, 24 h), 5.32. Also, the 50% growth inhibitory concentration (GI50) in test [2] (Homo sapiens, NCI-H2052, 72 h) is 6840 nM; in the test with MKN-45/Ubc-luc cells [4] (Homo sapiens), greater than 10 µM. The IC50 with MKN-45/Ubc-luc cells [3] is greater than 10 µM.
